# Starred links: 1 amine or outer side, 2 acyl side, 3 side chain; linkers in the order of their positions; H or OH if unused. Positions of bridges follow the written chain, without caps; N, C: chain ends. Non-standard residues stand in square brackets, D forms with d. Residues, ends and D or L forms follow the SMILES beside them. *: point of attachment. hPhe(3-Cl-4-CF3) = N[C@@H](CCc1ccc(C(F)(F)F)c(Cl)c1)C(=O)O; hPhe(3-F,4-CF3) = N[C@@H](CCc1ccc(C(F)(F)F)c(F)c1)C(=O)O; X12 = CN([C@@H](Cc1ccc(C(F)(F)F)nc1)C(=O)[*:2])[*:1]; hPhe(4-CF3) = N[C@@H](CCc1ccc(C(F)(F)F)cc1)C(=O)O; NMePhe(4-Cl) = CN[C@@H](Cc1ccc(Cl)cc1)C(=O)O; Phe(3,5-F2) = N[C@@H](Cc1cc(F)cc(F)c1)C(=O)O; NMePhe(4-Me) = CN[C@@H](Cc1ccc(C)cc1)C(=O)O; NMedβ3hAla = C[C@H](CC(=O)[*:2])N(C)[*:1]; Phe(3-Cl) = N[C@@H](Cc1cccc(Cl)c1)C(=O)O; hPhe(4-F) = N[C@@H](CCc1ccc(F)cc1)C(=O)O; NMeGly(cPent) = CN[C@H](C(=O)O)C1CCCC1; Phe(3-I) = N[C@@H](Cc1cccc(I)c1)C(=O)O; X26 = O=C([C@@H]1CCC[C@H]1N[*:1])[*:2]; NMeCha = CN[C@@H](CC1CCCCC1)C(=O)O; NMeGly(cPr) = CN[C@H](C(=O)O)C1CC1; NMehLeu = CN[C@@H](CCC(C)C)C(=O)O; NMeChg = CN[C@H](C(=O)O)C1CCCCC1; NMeF = CN[C@@H](Cc1ccccc1)C(=O)O; NMeI = CC[C@H](C)[C@H](NC)C(=O)O; hPhe = N[C@@H](CCc1ccccc1)C(=O)O; N(CH2CH2)2CF2 = FC1(F)CCN(*)CC1; NMeD = CN[C@@H](CC(=O)O)C(=O)O; NMeL = CN[C@@H](CC(C)C)C(=O)O; NMeV = CN[C@H](C(=O)O)C(C)C; d(β3hA) = C[C@@H](N)CC(=O)O; NMeS = CN[C@@H](CO)C(=O)O; Pip = O=C(O)[C@@H]1CCCCN1; Morpholide = C1CN(*)CCO1; NMeA = CN[C@@H](C)C(=O)O; NMeAib = CNC(C)(C)C(=O)O; Piperidide = C1CCN(*)CC1; Pyrrolidide = C1CCN(*)C1; Ac5c = NC1(C(=O)O)CCCC1; Aze = O=C(O)[C@@H]1CCN1; Aib = CC(C)(N)C(=O)O; Isopentyl = CC(C)CC*; NEtG = CCNCC(=O)O; Sar = CNCC(=O)O; Propyl = CCC*
# Molecular target: T1, Kras and SOS1 (biotin-tagged human Kras loaded with GDP, His-tagged human SOS1) (Homo sapiens, UniProt P01116, G12D)
# T1 construct: made in house; host or cells: E. coli (stated for Kras only)
# Test: Protein-protein interaction inhibition between Kras and SOS1 (KrasGl2D-SOS PPI) using AlphaScreen
# Assay type: binding
# Settings: AlphaScreen; biotin-tagged human Kras loaded with GDP, His-tagged human SOS1; read-out: KRAS G12D-SOS PPI IC50
# Procedure: Protein-Protein Interaction Inhibition Between Kras and SOS1 (KrasGl2D-SOS PPI) Using AlphaScreen
# Protein-protein interaction inhibition (PPI) between Kras and SOS1 was measured by energy transfer from nickel-conjugated donor beads to streptavidin-conjugated acceptor beads using biotin-tagged human Kras expressed in E. coli and loaded with GDP after purification and His-tagged human SOS1 enzyme. This measurement utilizes the phenomenon in which donor beads are irradiated with light at 680 nm, such that energy is transferred to acceptor beads through singlet oxygen and light at 520-620 nm is detected from the acceptor beads.
# Inhibition of binding between K-ras and SOS1 is known to inhibit signaling downstream of Kras.
# T1 sequence (P01116 1-188 isoform P01116-2 G12D): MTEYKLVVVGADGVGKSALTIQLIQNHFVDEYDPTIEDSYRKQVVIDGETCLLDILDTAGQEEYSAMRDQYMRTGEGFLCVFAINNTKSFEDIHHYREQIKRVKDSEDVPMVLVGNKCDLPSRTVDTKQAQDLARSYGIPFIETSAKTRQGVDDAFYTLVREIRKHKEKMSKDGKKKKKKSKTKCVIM
row,Structure (SMILES),IC50 [nM]
1,CC[C@H](C)[C@@H]1NC(=O)[C@H](CC(C)C)N(C)C(=O)C[C@@H](C(=O)N(C)C)N(C)C(=O)[C@H]([C@@H](C)CC)N(C)C(=O)[C@H](C(C)C)NC(=O)[C@H](C)N(C)C(=O)[C@H](CCc2ccc(C(F)(F)F)c(Cl)c2)NC(=O)CN(C)C(=O)[C@H](Cc2ccc(C)cc2)N(C)C(=O)[C@@H]2CCN2C(=O)[C@H](C)N(C)C1=O [Compound 4] ([NMeL]I[NMeA][Aze][NMePhe(4-Me)][Sar][hPhe(3-Cl-4-CF3)][NMeA]V[NMeI][NMeD]-NMe2; lactam N-11),13
2,CC[C@H](C)[C@@H]1NC(=O)[C@H](CC(C)C)N(C)C(=O)C[C@@H](C(=O)N2CCCCC2)N(C)C(=O)[C@H](C2CCCCC2)N(C)C(=O)C2(CCCC2)NC(=O)[C@H](Cc2ccc(C(F)(F)F)nc2)N(C)C(=O)[C@H](CCc2ccc(C(F)(F)F)c(Cl)c2)NC(=O)CN(C)C(=O)[C@H](CC2CCCCC2)N(C)C(=O)[C@@H]2CCN2C(=O)CN(C)C1=O [Compound 6] ([NMeL]I[Sar][Aze][NMeCha][Sar][hPhe(3-Cl-4-CF3)][X12][Ac5c][NMeChg][NMeD]-Piperidide; lactam N-11),13
3,COC[C@@H]1NC(=O)[C@H](CC(C)C)N(C)C(=O)C[C@@H](C(=O)N2CCCCC2)N(C)C(=O)[C@H](C(C)C)N(C)C(=O)C2(CCCC2)NC(=O)[C@@H]2CCCN2C(=O)[C@H](CCc2ccc(C(F)(F)F)c(Cl)c2)NC(=O)CN(C)C(=O)[C@H](CC2CCCCC2)N(C)C(=O)[C@@H]2CCN2C(=O)[C@H](C)N(C)C1=O [Compound 7] ([NMeL]S(Me)[NMeA][Aze][NMeCha][Sar][hPhe(3-Cl-4-CF3)]P[Ac5c][NMeV][NMeD]-Piperidide; lactam N-11),18
4,"CCCOC[C@H]1C(=O)N(C)CC(=O)N[C@@H](CCc2ccc(C(F)(F)F)c(F)c2)C(=O)N2CCC[C@H]2C(=O)NC2(CCCC2)C(=O)N(C)[C@@H](C2CCCC2)C(=O)N(C)[C@H](C(=O)N2CCOCC2)CC(=O)N(C)[C@@H](CC(C)C)C(=O)N[C@@H]([C@@H](C)CC)C(=O)N(C)[C@@H](C)C(=O)N2CC[C@H]2C(=O)N1C [Compound 9, (5S,8S,11S,15S,18S,23aS,29S,35S,37aS)-8-((S)-sec-butyl)-18-cyclopentyl-29-(3-fluoro-4-(trifluoromethyl)phenethyl)-11-isobutyl-5,6,12,16,19,33,36-heptamethyl-15-(morpholine-4-carbonyl)-35-(propoxymethyl)docosahydro-2H,4H-spiro[azeto[2,1-u]pyrrolo[2,1-i][1,4,7,10,13,16,19,22,25,28,31]undecaazacyclotetratriacontine-21,1′-cyclopentan]-4,7,10,13,17,20,23,28,31,34,37(14H,22H)-undecaone] ([NMeL]I[NMeA][Aze][NMeS](Propyl)[Sar][hPhe(3-F,4-CF3)]P[Ac5c][NMeGly(cPent)][NMeD]-Morpholide; lactam N-11)",1.5
5,CC[C@H](C)[C@@H]1NC(=O)[C@H](CC(C)C)N(C)C(=O)C[C@@H](C(=O)N2CCCCC2)N(C)C(=O)[C@H](CC(C)C)NC(=O)C(C)(C)N(C)C(=O)[C@H](CCc2ccccc2)NC(=O)[C@H](Cc2cccc(I)c2)NC(=O)CN(C)C(=O)[C@H](Cc2ccc(C)cc2)N(C)C(=O)CN(C)C(=O)CN(C)C1=O [Compound 13] ([NMeL]I[Sar][Sar][NMePhe(4-Me)][Sar][Phe(3-I)][hPhe][NMeAib]L[NMeD]-Piperidide; lactam N-11),38
6,CC[C@H](C)[C@@H]1NC(=O)[C@H](CC(C)C)N(C)C(=O)C[C@@H](C)NC(=O)[C@H](C2CC2)N(C)C(=O)C2(CCCC2)NC(=O)[C@@H]2CCCN2C(=O)[C@H](CCc2ccc(C(F)(F)F)c(Cl)c2)NC(=O)CN(C)C(=O)[C@H](CC2CCCCC2)N(C)C(=O)CN(C)C(=O)CN(C)C1=O [Compound 14] (cyclo([Ac5c][NMeGly(cPr)][d(β3hA)][NMeL]I[Sar][Sar][NMeCha][Sar][hPhe(3-Cl-4-CF3)]P)),110
7,CC[C@H](C)[C@@H]1NC(=O)[C@H](C)N(C)C(=O)C[C@@H](C)NC(=O)[C@H](CC(C)C)N(C)C(=O)[C@H](Cc2ccccc2)N(C)C(=O)[C@@H]2CCCN2C(=O)[C@H](CCc2ccc(C(F)(F)F)cc2)NC(=O)CN(C)C(=O)[C@H]([C@@H](C)CC)N(C)C(=O)CN(C)C(=O)CN(C)C1=O [Compound 18] (cyclo(I[Sar][Sar][NMeI][Sar][hPhe(4-CF3)]P[NMeF][NMeL][d(β3hA)][NMeA])),230
8,"CC[C@H](C)[C@@H]1NC(=O)[C@H](C)N(C)C(=O)C[C@@H](C(=O)N2CCCC2)NC(=O)[C@H](C(C)C)N(C)C(=O)[C@H](Cc2ccccc2)N(C)C(=O)[C@H](Cc2ccccc2)NC(=O)[C@H](Cc2cc(F)cc(F)c2)NC(=O)CN(C)C(=O)[C@H](Cc2ccc(Cl)cc2)N(C)C(=O)CN(C)C(=O)CN(C)C1=O [Compound 21] ([NMeA]I[Sar][Sar][NMePhe(4-Cl)][Sar][Phe(3,5-F2)]F[NMeF][NMeV]D-Pyrrolidide; lactam N-11)",250
9,CC[C@H](C)[C@@H]1NC(=O)[C@H](CC(C)C)N(C)C(=O)C[C@@H](C)N(C)C(=O)[C@H](CCC(C)C)N(C)C(=O)C2(CCCC2)NC(=O)[C@@H]2CCCN2C(=O)[C@H](CCc2ccc(C(F)(F)F)c(Cl)c2)NC(=O)CN(C)C(=O)[C@H](CC2CCCCC2)N(C)C(=O)CN(C)C(=O)CN(C)C1=O [Compound 22] (cyclo([Ac5c][NMehLeu][NMedβ3hAla][NMeL]I[Sar][Sar][NMeCha][Sar][hPhe(3-Cl-4-CF3)]P)),110
10,CC[C@H](C)[C@@H]1NC(=O)[C@H](CC(C)C)N(C)C(=O)C[C@@H](C(=O)N(C)C)N(C)C(=O)[C@H](C2CCCC2)N(C)C(=O)[C@H](C(C)C)NC(=O)[C@@H](C)NC(=O)[C@H](CCc2ccc(C(F)(F)F)c(Cl)c2)NC(=O)CN(C)C(=O)[C@H](CC2CCCCC2)N(C)C(=O)[C@@H]2CCN2C(=O)[C@H](C)N(C)C1=O [Compound 24] ([NMeL]I[NMeA][Aze][NMeCha][Sar][hPhe(3-Cl-4-CF3)][dA]V[NMeGly(cPent)][NMeD]-NMe2; lactam N-11),25
11,CC[C@H](C)[C@@H]1NC(=O)[C@H](C)N(C)C(=O)[C@@H]2CCC[C@H]2NC(=O)[C@H](CC(C)C)N(C)C(=O)[C@H](Cc2ccccc2)N(C)C(=O)[C@@H]2CCCN2C(=O)[C@H](CCc2ccc(C(F)(F)F)cc2)NC(=O)CN(C)C(=O)[C@H](Cc2ccc(Cl)cc2)N(C)C(=O)CN(C)C(=O)CN(C)C1=O [Compound 25] (cyclo(I[Sar][Sar][NMePhe(4-Cl)][Sar][hPhe(4-CF3)]P[NMeF][NMeL][X26][NMeA])),150
12,CC[C@H](C)[C@@H]1NC(=O)[C@H](CC(C)C)N(C)C(=O)C[C@@H](C(=O)N2CCCC2)N(C)C(=O)[C@H](C2CCCC2)N(C)C(=O)C2(CCCC2)NC(=O)[C@H](CC(=O)N2CCC(F)(F)CC2)N(C)C(=O)[C@H](CCc2ccc(C(F)(F)F)c(Cl)c2)NC(=O)CN(C)C(=O)[C@H](CC2CCCCC2)N(C)C(=O)[C@@H]2CCN2C(=O)[C@H](C)N(C)C1=O [Compound 26] ([NMeL]I[NMeA][Aze][NMeCha][Sar][hPhe(3-Cl-4-CF3)][NMeD](N(CH2CH2)2CF2)[Ac5c][NMeGly(cPent)][NMeD]-Pyrrolidide; lactam N-11),4.3
13,"CC[C@H](C)[C@@H]1NC(=O)[C@H](CC(C)C)N(C)C(=O)C[C@@H](C(=O)N(C)C)N(C)C(=O)[C@H]([C@@H](C)CC)N(C)C(=O)C2(CCCC2)NC(=O)[C@H](COCCC(C)C)N(C)C(=O)[C@H](CCc2ccc(C(F)(F)F)c(Cl)c2)NC(=O)CN(C)C(=O)[C@H](Cc2ccc(C)cc2)N(C)C(=O)[C@@H]2CCN2C(=O)[C@H](C)N(C)C1=O [Compound 27, (3S,6S,9S,13S,16S,22S,25S,31S,34S)-25-[2-[3-chloro-4-(trifluoromethyl)phenyl]ethyl]-9-isobutyl-22-(isopentyloxymethyl)-N,N,3,4,10,14,17,23,29,32-decamethyl-6,16-bis[(1S)-1-methylpropyl]-2,5,8,11,15,18,21,24,27,30,33-undecaoxo-31-(p-tolylmethyl)spiro[1,4,7,10,14,17,20,23,26,29,32-undecazabicyclo[32.2.0]hexatriacontane-19,1′-cyclopentane]-13-carboxamide] ([NMeL]I[NMeA][Aze][NMePhe(4-Me)][Sar][hPhe(3-Cl-4-CF3)][NMeS](Isopentyl)[Ac5c][NMeI][NMeD]-NMe2; lactam N-11)",3.3
14,CC[C@H](C)[C@@H]1NC(=O)[C@H](C)N(C)C(=O)C[C@@H](C)NC(=O)[C@H](CC(C)C)N(C)C(=O)C(C)(C)NC(=O)[C@H](CC(C)C)N(C)C(=O)[C@H](CCc2ccc(F)cc2)NC(=O)CN(C)C(=O)[C@H](Cc2ccc(Cl)cc2)N(C)C(=O)CN(C)C(=O)CN(C)C1=O [Compound 28] (cyclo([Aib][NMeL][d(β3hA)][NMeA]I[Sar][Sar][NMePhe(4-Cl)][Sar][hPhe(4-F)][NMeL])),160
15,CC[C@H](C)[C@@H]1NC(=O)[C@H](C)N(C)C(=O)C[C@@H](C(=O)N2CCCC2)NC(=O)[C@H](C(C)C)N(C)C(=O)[C@H](Cc2ccccc2)N(C)C(=O)[C@H](Cc2ccccc2)NC(=O)[C@H](Cc2cccc(Cl)c2)NC(=O)CN(CC)C(=O)[C@H](Cc2ccc(Cl)cc2)N(C)C(=O)CN(C)C(=O)CN(C)C1=O [Compound 29] ([NMeA]I[Sar][Sar][NMePhe(4-Cl)][NEtG][Phe(3-Cl)]F[NMeF][NMeV]D-Pyrrolidide; lactam N-11),320
16,CC[C@H](C)[C@@H]1NC(=O)[C@@H]2CCCCN2C(=O)C[C@@H](C)NC(=O)[C@H](CC(C)C)N(C)C(=O)C(C)(C)NC(=O)[C@H](CC(C)C)N(C)C(=O)[C@H](CCc2ccc(C(F)(F)F)cc2)NC(=O)CN(C)C(=O)[C@H](CC2CCCCC2)N(C)C(=O)CN(C)C(=O)CN(C)C1=O [Compound 31] (cyclo([Aib][NMeL][d(β3hA)][Pip]I[Sar][Sar][NMeCha][Sar][hPhe(4-CF3)][NMeL])),380
